Measurements as given in PubChem BioAssay (NCI).
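In this assay, cells in 96-well plates receive the compound at five concentrations for 48 hours. Endpoints are linearly interpolated between the surrounding concentrations. TGI: total growth inhibition.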

Columns and labels:
Assay in all cases: NCI-60 cell line screen, 48 h
EKVX NSCLC = system: EKVX NSCLC
MOLT-4 leukemia = system: MOLT-4 leukemia
SNB-19 CNS = system: SNB-19 CNS
HCT-15 colon = system: HCT-15 colon
DU-145 prostate = system: DU-145 prostate
BT-549 breast = system: BT-549 breast
MALME-3M melanoma = system: MALME-3M melanoma
MCF7 breast = system: MCF7 breast
A498 renal = system: A498 renal
NCI-H522 lung = system: NCI-H522 lung
HT29 colon = system: HT29 colon
SK-OV-3 ovarian = system: SK-OV-3 ovarian
UACC-257 melanoma = system: UACC-257 melanoma
HL-60(TB) leukemia = system: HL-60(TB) leukemia
M14 melanoma = system: M14 melanoma
SK-MEL-2 melanoma = system: SK-MEL-2 melanoma
ACHN renal = system: ACHN renal
SF-539 CNS = system: SF-539 CNS
HCT-116 colon = system: HCT-116 colon
SK-MEL-5 melanoma = system: SK-MEL-5 melanoma
OVCAR-8 ovarian = system: OVCAR-8 ovarian
U251 CNS = system: U251 CNS
CCRF-CEM leukemia = system: CCRF-CEM leukemia
HOP-62 NSCLC = system: HOP-62 NSCLC
SF-268 CNS = system: SF-268 CNS
SNB-75 CNS = system: SNB-75 CNS
KM12 colon = system: KM12 colon
COLO 205 colon = system: COLO 205 colon
SW-620 colon = system: SW-620 colon
K-562 leukemia = system: K-562 leukemia
HOP-92 NSCLC = system: HOP-92 NSCLC
RPMI-8226 leukemia = system: RPMI-8226 leukemia
HS 578T breast = system: HS 578T breast
HCC-2998 colon = system: HCC-2998 colon
A549 NSCLC = system: A549 NSCLC
OVCAR-4 ovarian = system: OVCAR-4 ovarian
IGROV1 ovarian = system: IGROV1 ovarian
PC-3 prostate = system: PC-3 prostate
TK-10 renal = system: TK-10 renal
UO-31 renal = system: UO-31 renal
MDA-N = system: MDA-N
OVCAR-5 ovarian = system: OVCAR-5 ovarian
T-47D breast = system: T-47D breast
NCI-H23 lung = system: NCI-H23 lung
NCI-H226 lung = system: NCI-H226 lung
LOX IMVI melanoma = system: LOX IMVI melanoma
786-0 renal = system: 786-0 renal
SK-MEL-28 melanoma = system: SK-MEL-28 melanoma
NCI-H460 lung = system: NCI-H460 lung
SF-295 CNS = system: SF-295 CNS
SR leukemia = system: SR leukemia
MDA-MB-435 = system: MDA-MB-435
OVCAR-3 ovarian = system: OVCAR-3 ovarian
RXF 393 renal = system: RXF 393 renal
UACC-62 melanoma = system: UACC-62 melanoma
MDA-MB-231 breast = system: MDA-MB-231 breast
CAKI-1 renal = system: CAKI-1 renal
SN12C renal = system: SN12C renal

Measured: TGI

COCC1OC(OC2C3=C(C(C)C)CCC3(C)/C=C3\C(CCC3(O)COC)C(C)C2O)C(O)C2OC3OC12OC3(C)C1CO1 (stereo not drawn)
82.4 µM: NCI-H522 lung
43.1 µM: NCI-H226 lung
75.7 µM: SR leukemia
68.4 µM: SF-268 CNS
98.8 µM: U251 CNS
59.6 µM: CCRF-CEM leukemia
72.1 µM: UO-31 renal
54 µM: MOLT-4 leukemia
54.1 µM: HL-60(TB) leukemia
67.3 µM: SK-MEL-5 melanoma
99.7 µM: CAKI-1 renal
87.8 µM: BT-549 breast
> 100 µM: EKVX NSCLC | SNB-19 CNS | HCT-15 colon | DU-145 prostate | MALME-3M melanoma | MCF7 breast | A498 renal | HT29 colon | SK-OV-3 ovarian | UACC-257 melanoma | M14 melanoma | SK-MEL-2 melanoma | ACHN renal | SF-539 CNS | HCT-116 colon | OVCAR-8 ovarian | HOP-62 NSCLC | KM12 colon | COLO 205 colon | SW-620 colon | K-562 leukemia | HOP-92 NSCLC | RPMI-8226 leukemia | HS 578T breast | HCC-2998 colon | A549 NSCLC | OVCAR-4 ovarian | IGROV1 ovarian | PC-3 prostate | TK-10 renal | MDA-N | OVCAR-5 ovarian | T-47D breast | NCI-H23 lung | 786-0 renal | SK-MEL-28 melanoma | NCI-H460 lung | SF-295 CNS | MDA-MB-435 | OVCAR-3 ovarian | RXF 393 renal | UACC-62 melanoma | MDA-MB-231 breast | SN12C renal
92.7 µM: SNB-75 CNS
99.3 µM: LOX IMVI melanoma

CCOc1ccc(/C(O)=C/c2nc3ccccc3nc2/C=C(\O)c2ccc(OCC)cc2)cc1
26.6 µM: SR leukemia
> 100 µM: EKVX NSCLC | MOLT-4 leukemia | SNB-19 CNS | HCT-15 colon | DU-145 prostate | BT-549 breast | MALME-3M melanoma | MCF7 breast | A498 renal | NCI-H522 lung | HT29 colon | SK-OV-3 ovarian | UACC-257 melanoma | HL-60(TB) leukemia | M14 melanoma | SK-MEL-2 melanoma | ACHN renal | SF-539 CNS | HCT-116 colon | SK-MEL-5 melanoma | U251 CNS | CCRF-CEM leukemia | HOP-62 NSCLC | SF-268 CNS | COLO 205 colon | SW-620 colon | K-562 leukemia | HOP-92 NSCLC | RPMI-8226 leukemia | HS 578T breast | HCC-2998 colon | A549 NSCLC | OVCAR-4 ovarian | IGROV1 ovarian | PC-3 prostate | TK-10 renal | UO-31 renal | MDA-N | OVCAR-5 ovarian | T-47D breast | NCI-H23 lung | NCI-H226 lung | LOX IMVI melanoma | 786-0 renal | SK-MEL-28 melanoma | NCI-H460 lung | SF-295 CNS | MDA-MB-435 | OVCAR-3 ovarian | RXF 393 renal | UACC-62 melanoma | MDA-MB-231 breast | CAKI-1 renal | SN12C renal
